This is an account of results in patent publication US5054434A, “Suppression of ammonia odors from animal wastes” (W. R. Grace & Co.-Conn., priority 1989, dated 1991).

Series [1] deals with urease. To be noted: literature statement (Mobley and Hausinger 1989); cited from earlier work.
In series [2] the target is jack bean urease (Canavalia ensiformis, UniProt P07374). As to the kind of experiment: Ammonia accumulation from synthetic urine with urease on treated bedding. To be noted: for control of accumulation of ammonia: procedure of Example 1; for ammonia smell in capped bottle: 12 mg acid, 15 g synthetic urine with 200 units urease, 37.5° C., after 4 hr. The series is classed as biochemical. The protocol: To test the effectiveness of the acid the following procedure has been used. A synthetic urine is made by combining 2.3 wt % urea and 1.1 wt % sodium chloride. To mimic the presence of bacteria, 200 units of jack bean urease is added to the synthetic urine. Jack bean urease is a readily available form of urease which is suitable for use in this context because useases from most natural sources appear to act similarly. See "Jack Bean Urease (EC 3.5.1.5).8. […] Chem. Soc. 1986, 108, 7124-7125.
This urine is then poured over a sample of bedding or other absorbent material to which the acid has been applied. The treated sample is covered so that any gases produced may accumulate. The presence of ammonia is tested for by using Draeger tubes.
Two 8 oz. polyethylene bottles were charged with 15 g of rice hulls and 15 g of sawdust, respectively. […] The bottles were capped, and incubated in a shaker bath at 37.5° C. […] By contrast, identical bottles not containing citric acid smelled strongly of ammonia.

The conditions of series [3]: cited from earlier work.
The conditions of series [4]: smell of the acid itself; cited from earlier work.
For series [5], the system named is Bacillus pasteurii. The experiment in a line: Ammonia accumulation from synthetic urine on rice hulls with live urease-producing bacteria. To be noted: 24 mg acid, 6 g rice hulls, 24 g synthetic urine, 37.5° C., after one day.
For series [6], the system named is rabbit. To be noted: cited from earlier work.

Structures can show the parent of a compound that is named as a salt.

jack bean urease, sequence (P07374 whole entry, looked up): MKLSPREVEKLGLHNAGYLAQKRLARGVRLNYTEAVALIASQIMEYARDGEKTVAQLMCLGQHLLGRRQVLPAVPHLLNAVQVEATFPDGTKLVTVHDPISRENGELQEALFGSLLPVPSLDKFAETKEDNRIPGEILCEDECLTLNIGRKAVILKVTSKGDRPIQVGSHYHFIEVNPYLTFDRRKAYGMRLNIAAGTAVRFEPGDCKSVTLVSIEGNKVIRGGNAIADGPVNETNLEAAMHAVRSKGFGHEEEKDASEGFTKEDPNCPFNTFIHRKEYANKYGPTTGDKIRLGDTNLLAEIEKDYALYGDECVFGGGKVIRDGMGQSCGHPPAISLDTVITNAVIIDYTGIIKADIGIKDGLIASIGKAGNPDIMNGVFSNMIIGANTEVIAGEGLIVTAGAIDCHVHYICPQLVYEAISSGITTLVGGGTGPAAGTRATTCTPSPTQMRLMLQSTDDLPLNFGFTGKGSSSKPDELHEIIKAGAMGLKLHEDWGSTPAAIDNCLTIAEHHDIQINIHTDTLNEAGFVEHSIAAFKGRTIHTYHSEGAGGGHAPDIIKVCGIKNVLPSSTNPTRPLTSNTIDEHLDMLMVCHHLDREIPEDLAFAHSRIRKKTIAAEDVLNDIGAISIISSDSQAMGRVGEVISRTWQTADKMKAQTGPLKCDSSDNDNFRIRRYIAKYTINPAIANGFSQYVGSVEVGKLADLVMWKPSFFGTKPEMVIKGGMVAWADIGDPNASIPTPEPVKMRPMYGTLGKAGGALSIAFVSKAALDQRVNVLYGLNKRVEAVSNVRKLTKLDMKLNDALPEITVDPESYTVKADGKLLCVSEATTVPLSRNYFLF

With phosphoric acid, the inhibition of urease entry in series [1] is given as “inhibitor of urease”. For the same compound, the “control of accumulation of ammonia” value in series [2] (6 mg) is “sufficient to prevent the accumulation of noticeable amounts of ammonia”.

Take `O=C(O)CC(O)(CC(=O)O)C(=O)O` [sodium citrate, reference compound]: the “control of accumulation of ammonia” value in series [2] (24 mg) was “not to control the accumulation of ammonia”. For the compound `OB(O)O` [boric acid, reference compound], the “First pKa” value in series [3] is 9.1. Also, in series [2] (36 mg), the “control of accumulation of ammonia” value is “not control the accumulation of ammonia”. With `O=C(O)CCC(=O)O` [Succinic, succinic], in series [4], the Smell entry was “None”. Turning to `O=C(O)CC(O)(CC(=O)O)C(=O)O` [Citric, citric acid], in series [4], the Smell result is “None”. The “ammonia in bottle measured using a Draeger tube” value in series [5] is recorded as “less than 5 ppm”. The “ammonia smell in capped bottle” value in series [2] (15 g rice hulls) and in series [2] (15 g sawdust) was “no ammonia smell could be detected” throughout. Regarding `O=C(O)CC(O)C(=O)O` (stereo not drawn) [Malic, malic acid], the Smell entry in series [4] is recorded as “None”. In addition, the “Oral LD50” value in series [6] is reported as 5,000 mg/kg. Moreover, in series [2] (12 mg), the “control of accumulation of ammonia” value is “sufficient to prevent the accumulation of noticeable amounts of ammonia”. Regarding `O=C(O)/C=C/C(=O)O` [Fumaric, fumaric acid], in series [2] (6 mg), the “control of accumulation of ammonia” value is reported as “sufficient to prevent the accumulation of noticeable amounts of ammonia”.

Consider `C/C=C/C=C/C(=O)O` [Sorbic, sorbic], for which the Smell entry in series [4] was “None”. In addition, the “First pKa” value in series [3] is listed as 4.8.

Regarding `O=C(O)CC(=O)O` [Malonic, malonic], the Smell entry in series [4] was “None”. As for `CC(=O)O` [acetic acid, reference compound], the Smell result in series [4] was “strong and unpleasant smell”.
